# Source: patent US6342537B1, “Gel for treatment of skin diseases and for disinfection of the skin” (priority 1994, dated 2002)
# Where “and” joins values, the source holds several entries; their conditions need not be identical. Equal values may be shown once. Read-outs that look alike come from different tables or passages of the source.
# Columns and labels:
# [1] = test system: herpes labialis eruptions; assay: Herpes labialis eruptions, prolonged contact with impregnated cotton (Example 23.2); type: in vivo, human; conditions: for symptom relief: intensive depot treatment
# [2] = test system: herpes labialis eruptions; conditions: in vivo
# Text: 23.4—Application of Gelled Alcohol
# In this example some of the gelled compositions contained 1.6% by weight HPC and others contained 1.6% by weight EHEC.
# [3] = test system: herpes labialis eruptions; conditions: glass container; for symptom relief: two early phases
# [4] = test system: recurrent herpes genitalia, herpes febrilis (labialis); conditions: nonimmunocompromised patients; cited from earlier work
# [5] = test system: herpes simplex virus (HSV) type 1; assay: Inactivation of herpes simplex virus in infected MRC-5 cells by alcohols (Example 25); type: cell-based; conditions: for HSV - CPE after 44 hours with the detecting cell-layer: duplicate wells; for HSV - CPE after 44 hours with the detecting cell-layer: key: 0: no CPE; 1: a few; 2: several; 3: all cells infected with HSV
# Method: Ethanol is an accepted disinfectant for viruses with an envelope. The purpose of this study was to measure the inactivating effect of “short-chained alcohols” on virus-infected cells.
# Four 96 well plates with confluent MRC-5 cell were infected with herpes simplex virus (HSV) type 1. After appearance of 50% cytopathic effect (CPE), the culture medium was removed, and rows of 12 wells were treated with 25 μl/well of the alcohols or buffer after the following scheme: The first row with undiluted, and the following with 96%, 90%, 80%, 70%, 60% and 50% alcohol, respectively—all dilutions performed in buffer (PBS). To the last row was added buffer. After 2, 4, 8, 16 and 32 min, respectively, two wells in each row were emptied and the cells overlaid with PBS. The plate was then frozen at —80° C. Afterwards the wells were seeded with a detection layer of MRC-5 cells and the plates were placed at 37° C. for 44 hours. Virus surviving the treatment with alcohol was detected by the appearance of CPE, characteristic for HSV in the detection monolayer.
structure (smiles),measurement,setting,value
CCO [Ethanol 99%],abortive effect,[1]; early phase and vesicular phase,some abortive effect
same,symptom relief,[1],palliative effect on symptom relief
same,pain reaction on application in the ulceration phase,[2],slight pain of short duration
same,eruption abortive effect,[3],clearly observed
same,eruption shortening effect,[3],likewise observed
same,symptom relief,[3],very strong symptom relief
"Nc1nc2c(ncn2COCCO)c(=O)[nH]1 [Topical acyclovir, acyclovir]",effectiveness in recurrent herpes genitalia / labialis,[4],not effective
CCO [Ethanol 90%],pain reaction on application in the ulceration phase,[2],less pain or shorter duration
CCO [Ethanol 95%],symptom relief,[1],palliative effect on symptom relief
same,pain reaction on application in the ulceration phase,[2],slight pain of short duration
same,eruption abortive effect,[3],clearly observed
same,eruption shortening effect,[3],likewise observed
same,symptom relief,[3],very strong symptom relief
CCCO [Propanol],HSV - CPE after 44 hours with the detecting cell-layer,"[5]; 50% alcohol in PBS, 2 min",2
same,HSV - CPE after 44 hours with the detecting cell-layer,"[5]; 50% alcohol in PBS, 4 min",3
same,HSV - CPE after 44 hours with the detecting cell-layer,"[5]; 50% alcohol in PBS, 8 min",3 and 2
same,HSV - CPE after 44 hours with the detecting cell-layer,"[5]; 50% alcohol in PBS, 16 min",3 and 2
same,HSV - CPE after 44 hours with the detecting cell-layer,"[5]; 50% alcohol in PBS, 32 min",1
same,HSV - CPE after 44 hours with the detecting cell-layer,"[5]; 60% alcohol in PBS, 2 min",1 and 2
same,HSV - CPE after 44 hours with the detecting cell-layer,"[5]; 60% alcohol in PBS, 4 min",2 and 1
same,HSV - CPE after 44 hours with the detecting cell-layer,"[5]; 60% alcohol in PBS, 8 min",1 and 0
same,HSV - CPE after 44 hours with the detecting cell-layer,"[5]; 60% alcohol in PBS, 16 min",1 and 0
same,HSV - CPE after 44 hours with the detecting cell-layer,"[5]; 60% alcohol in PBS, 32 min",0
same,HSV - CPE after 44 hours with the detecting cell-layer,"[5]; 70% alcohol in PBS, 2 min",1 and 2
same,HSV - CPE after 44 hours with the detecting cell-layer,"[5]; 70% alcohol in PBS, 4 min",1 and 0
same,HSV - CPE after 44 hours with the detecting cell-layer,"[5]; 70% alcohol in PBS, 8 min",1 and 0
same,HSV - CPE after 44 hours with the detecting cell-layer,"[5]; 70% alcohol in PBS, 16 min",0
same,HSV - CPE after 44 hours with the detecting cell-layer,"[5]; 70% alcohol in PBS, 32 min",0
same,HSV - CPE after 44 hours with the detecting cell-layer,"[5]; 80% alcohol in PBS, 2 min",0
same,HSV - CPE after 44 hours with the detecting cell-layer,"[5]; 80% alcohol in PBS, 4 min",0
same,HSV - CPE after 44 hours with the detecting cell-layer,"[5]; 80% alcohol in PBS, 8 min",0 and 1
same,HSV - CPE after 44 hours with the detecting cell-layer,"[5]; 80% alcohol in PBS, 16 min",0
same,HSV - CPE after 44 hours with the detecting cell-layer,"[5]; 80% alcohol in PBS, 32 min",0
same,HSV - CPE after 44 hours with the detecting cell-layer,"[5]; 90% alcohol in PBS, 2 min",0
same,HSV - CPE after 44 hours with the detecting cell-layer,"[5]; 90% alcohol in PBS, 4 min",0
same,HSV - CPE after 44 hours with the detecting cell-layer,"[5]; 90% alcohol in PBS, 8 min",0
same,HSV - CPE after 44 hours with the detecting cell-layer,"[5]; 90% alcohol in PBS, 16 min",0
same,HSV - CPE after 44 hours with the detecting cell-layer,"[5]; 90% alcohol in PBS, 32 min",0
same,HSV - CPE after 44 hours with the detecting cell-layer,"[5]; 96% alcohol in PBS, 2 min",0
same,HSV - CPE after 44 hours with the detecting cell-layer,"[5]; 96% alcohol in PBS, 4 min",0
same,HSV - CPE after 44 hours with the detecting cell-layer,"[5]; 96% alcohol in PBS, 8 min",0
same,HSV - CPE after 44 hours with the detecting cell-layer,"[5]; 96% alcohol in PBS, 16 min",0
same,HSV - CPE after 44 hours with the detecting cell-layer,"[5]; 96% alcohol in PBS, 32 min",0
same,inactivation of herpes simplex virus (in words),[5]; HSV type 1 infected MRC-5 cells,able to inactivate herpes simplex virus even intracellular virus
same,HSV - CPE after 44 hours with the detecting cell-layer,"[5]; alcohol undiluted, 2 min with alcohol",0
same,HSV - CPE after 44 hours with the detecting cell-layer,"[5]; alcohol undiluted, 4 min",0
same,HSV - CPE after 44 hours with the detecting cell-layer,"[5]; alcohol undiluted, 8 min",0
same,HSV - CPE after 44 hours with the detecting cell-layer,"[5]; alcohol undiluted, 16 min",0
same,HSV - CPE after 44 hours with the detecting cell-layer,"[5]; alcohol undiluted, 32 min",0
